Measured values as given in ChEMBL document CHEMBL1649099, “Identification of potent and selective glucosylceramide synthase inhibitors from a library of N-alkylated iminosugars” (ACS Med Chem Lett, 2011).

Tests used:
[1] = biological target: T1, Ceramide glucosyltransferase (Mus musculus, UniProt O88693); assay: Inhibition of glucosylceramide synthase in mouse RAW cells preincubated with compound for 15 mins by in-situ enzyme inhibition assay; format: cell-based
T1 sequence (O88693 whole entry): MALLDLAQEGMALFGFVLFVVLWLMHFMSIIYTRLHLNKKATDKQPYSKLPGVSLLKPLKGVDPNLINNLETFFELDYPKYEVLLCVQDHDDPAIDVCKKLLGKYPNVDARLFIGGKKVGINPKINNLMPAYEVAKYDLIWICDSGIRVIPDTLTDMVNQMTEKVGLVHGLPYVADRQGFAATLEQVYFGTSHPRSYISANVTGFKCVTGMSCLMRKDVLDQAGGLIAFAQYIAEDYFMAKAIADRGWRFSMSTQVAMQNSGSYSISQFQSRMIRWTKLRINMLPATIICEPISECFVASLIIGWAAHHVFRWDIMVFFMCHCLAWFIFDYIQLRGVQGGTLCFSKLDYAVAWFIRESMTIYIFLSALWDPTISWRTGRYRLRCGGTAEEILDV

[2] = biological target: T2, Beta-glucosidase (Homo sapiens, UniProt Q9HCG7); assay: Inhibition of recombinant GBA2 preincubated with compound for 30 mins using 4-methylumbelliferyl-B-glucoside substrate by fluorimetric assay
T2 sequence (Q9HCG7 whole entry): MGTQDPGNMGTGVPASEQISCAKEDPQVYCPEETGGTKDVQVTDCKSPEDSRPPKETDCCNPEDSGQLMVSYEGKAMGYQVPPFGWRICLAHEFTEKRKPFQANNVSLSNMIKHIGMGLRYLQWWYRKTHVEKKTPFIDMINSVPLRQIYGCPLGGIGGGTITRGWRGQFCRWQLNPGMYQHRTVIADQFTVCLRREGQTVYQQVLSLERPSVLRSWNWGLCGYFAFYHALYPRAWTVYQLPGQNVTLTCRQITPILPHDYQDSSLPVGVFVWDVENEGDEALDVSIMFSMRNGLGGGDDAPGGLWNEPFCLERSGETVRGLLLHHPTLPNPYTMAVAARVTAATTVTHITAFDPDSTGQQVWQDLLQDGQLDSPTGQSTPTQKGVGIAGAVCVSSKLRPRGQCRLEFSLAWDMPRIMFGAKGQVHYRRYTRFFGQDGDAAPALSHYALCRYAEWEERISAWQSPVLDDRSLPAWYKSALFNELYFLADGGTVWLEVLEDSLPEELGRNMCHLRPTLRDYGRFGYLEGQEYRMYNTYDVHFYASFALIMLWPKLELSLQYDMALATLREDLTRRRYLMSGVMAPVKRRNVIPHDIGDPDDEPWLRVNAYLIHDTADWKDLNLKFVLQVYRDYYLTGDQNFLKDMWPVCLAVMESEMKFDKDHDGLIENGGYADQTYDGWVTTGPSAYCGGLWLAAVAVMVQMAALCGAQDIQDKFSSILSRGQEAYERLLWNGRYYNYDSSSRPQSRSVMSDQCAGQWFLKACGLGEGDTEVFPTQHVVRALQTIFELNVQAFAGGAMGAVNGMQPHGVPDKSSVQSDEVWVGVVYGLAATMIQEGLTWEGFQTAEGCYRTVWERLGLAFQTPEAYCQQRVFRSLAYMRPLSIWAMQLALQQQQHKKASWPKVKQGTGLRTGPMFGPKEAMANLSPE

[3] = biological target: Sucrase-isomaltase (Mus musculus, UniProt B5THE3); assay: Inhibition of sucrase in mouse intestinal […] by glucose release assay
[4] = biological target: T3, Lysosomal acid glucosylceramidase (Homo sapiens, UniProt P04062); assay: Inhibition of recombinant GBA1 preincubated with compound for 30 mins using 4-methylumbelliferyl-B-glucoside substrate by fluorimetric assay
T3 sequence (P04062 whole entry): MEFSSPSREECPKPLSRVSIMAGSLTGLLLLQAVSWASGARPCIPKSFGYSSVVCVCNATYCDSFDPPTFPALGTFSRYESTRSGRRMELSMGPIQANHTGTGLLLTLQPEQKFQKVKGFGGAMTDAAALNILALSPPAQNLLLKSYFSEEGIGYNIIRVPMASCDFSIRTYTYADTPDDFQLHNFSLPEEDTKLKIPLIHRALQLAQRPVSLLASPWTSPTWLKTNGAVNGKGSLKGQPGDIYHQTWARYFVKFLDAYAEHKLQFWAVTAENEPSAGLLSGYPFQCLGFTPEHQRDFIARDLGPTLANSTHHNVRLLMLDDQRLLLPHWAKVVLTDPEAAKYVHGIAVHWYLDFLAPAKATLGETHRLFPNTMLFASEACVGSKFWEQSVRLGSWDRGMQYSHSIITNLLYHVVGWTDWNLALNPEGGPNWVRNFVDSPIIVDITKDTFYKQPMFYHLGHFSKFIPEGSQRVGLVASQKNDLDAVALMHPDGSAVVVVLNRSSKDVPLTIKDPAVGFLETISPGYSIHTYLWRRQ

Chain of Sucrase-isomaltase (B5THE3 whole entry): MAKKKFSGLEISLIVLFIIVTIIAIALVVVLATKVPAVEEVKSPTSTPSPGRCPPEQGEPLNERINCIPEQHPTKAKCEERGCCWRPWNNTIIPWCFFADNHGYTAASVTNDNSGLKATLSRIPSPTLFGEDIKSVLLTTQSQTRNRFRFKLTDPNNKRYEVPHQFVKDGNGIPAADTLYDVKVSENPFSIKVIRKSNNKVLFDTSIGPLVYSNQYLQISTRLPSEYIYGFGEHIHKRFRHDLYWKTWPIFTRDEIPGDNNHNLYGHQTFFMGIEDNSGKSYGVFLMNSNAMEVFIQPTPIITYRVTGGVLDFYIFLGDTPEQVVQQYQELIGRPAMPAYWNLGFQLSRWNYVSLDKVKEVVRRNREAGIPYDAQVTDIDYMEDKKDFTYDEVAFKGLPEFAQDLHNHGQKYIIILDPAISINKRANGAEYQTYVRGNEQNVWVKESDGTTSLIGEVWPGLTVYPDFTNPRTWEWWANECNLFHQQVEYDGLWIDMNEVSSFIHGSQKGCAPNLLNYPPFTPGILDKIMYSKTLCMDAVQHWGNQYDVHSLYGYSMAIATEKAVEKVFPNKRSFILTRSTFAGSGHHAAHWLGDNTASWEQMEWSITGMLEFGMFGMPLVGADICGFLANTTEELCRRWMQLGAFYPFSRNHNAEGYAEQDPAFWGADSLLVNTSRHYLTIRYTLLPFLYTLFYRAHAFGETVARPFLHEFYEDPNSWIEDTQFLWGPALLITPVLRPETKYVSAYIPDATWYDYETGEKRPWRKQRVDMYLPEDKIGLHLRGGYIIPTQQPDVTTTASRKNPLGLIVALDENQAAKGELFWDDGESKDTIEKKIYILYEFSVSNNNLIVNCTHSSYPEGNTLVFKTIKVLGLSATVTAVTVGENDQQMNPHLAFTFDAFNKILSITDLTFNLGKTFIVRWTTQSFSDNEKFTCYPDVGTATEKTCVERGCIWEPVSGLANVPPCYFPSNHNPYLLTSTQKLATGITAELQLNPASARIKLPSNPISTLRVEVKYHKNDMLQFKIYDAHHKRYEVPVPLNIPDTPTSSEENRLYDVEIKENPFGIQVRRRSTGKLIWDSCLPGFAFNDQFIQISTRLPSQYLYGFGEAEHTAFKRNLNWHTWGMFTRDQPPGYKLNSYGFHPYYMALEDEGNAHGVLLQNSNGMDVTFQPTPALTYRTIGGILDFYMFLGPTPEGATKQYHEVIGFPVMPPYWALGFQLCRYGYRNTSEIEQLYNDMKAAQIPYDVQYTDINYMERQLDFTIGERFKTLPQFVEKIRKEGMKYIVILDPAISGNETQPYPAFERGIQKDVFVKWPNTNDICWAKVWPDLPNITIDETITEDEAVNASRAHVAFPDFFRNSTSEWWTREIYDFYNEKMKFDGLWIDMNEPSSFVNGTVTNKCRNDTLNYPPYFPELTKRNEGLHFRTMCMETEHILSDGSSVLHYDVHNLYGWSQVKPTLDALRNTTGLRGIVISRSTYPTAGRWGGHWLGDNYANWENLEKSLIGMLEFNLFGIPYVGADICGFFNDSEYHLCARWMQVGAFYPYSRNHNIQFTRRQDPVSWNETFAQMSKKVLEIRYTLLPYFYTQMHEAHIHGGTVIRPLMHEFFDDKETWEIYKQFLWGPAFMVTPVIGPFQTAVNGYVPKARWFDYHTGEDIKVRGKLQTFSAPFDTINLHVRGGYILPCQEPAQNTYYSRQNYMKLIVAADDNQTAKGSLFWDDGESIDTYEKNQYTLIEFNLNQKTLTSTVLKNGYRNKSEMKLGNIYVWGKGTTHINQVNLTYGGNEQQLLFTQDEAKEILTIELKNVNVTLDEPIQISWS

| Compound | IC50 [1] [µM] | IC50 [2] [µM] | IC50 [3] [µM] | IC50 [4] [µM] |
| --- | --- | --- | --- | --- |
| CCCCCN1C[C@H](O)[C@@H](O)[C@H](O)[C@H]1CO | > 20 | 0.4 | 2 | 500 |
| CCCCCCN1C[C@H](O)[C@@H](O)[C@H](O)[C@H]1CO | > 20 | 0.11 | 1 | 80 |
| CCCCCCCN1C[C@H](O)[C@@H](O)[C@H](O)[C@H]1CO | 40 | 0.045 |  | 18.5 |
| CCCCCCCCN1C[C@H](O)[C@@H](O)[C@H](O)[C@H]1CO | 4 | 0.02 | 0.75 | 4 |
| CCCCCN1C[C@H](O)[C@@H](O)[C@H](O)[C@@H]1CO | 15 | 0.25 | > 1000 | > 1000 |
| CCCCCCN1C[C@H](O)[C@@H](O)[C@H](O)[C@@H]1CO | 40 | 0.14 | 600 | > 1000 |
| CCCCCCCN1C[C@H](O)[C@@H](O)[C@H](O)[C@@H]1CO | 4 | 0.04 |  | 700 |
| CCCCCCCCN1C[C@H](O)[C@@H](O)[C@H](O)[C@@H]1CO | 4 | 0.02 | 60 | 25 |
| CCCCCCCCCN1C[C@H](O)[C@@H](O)[C@H](O)[C@@H]1CO |  |  | > 1000 |  |
| CCCCOCCCCCN1C[C@H](O)[C@@H](O)[C@H](O)[C@H]1CO | 4 | 0.06 | 2 | 30 |
| CCCCCOCCCCCN1C[C@H](O)[C@@H](O)[C@H](O)[C@H]1CO | 2 | 0.04 |  | 705 |
| CCCCCCOCCCCCN1C[C@H](O)[C@@H](O)[C@H](O)[C@H]1CO | 1 | 0.008 |  |  |
| CCCCCCCOCCCCCN1C[C@H](O)[C@@H](O)[C@H](O)[C@H]1CO | 0.3 | 0.015 | 1 | 1.75 |
| CCCCCCCCOCCCCCN1C[C@H](O)[C@@H](O)[C@H](O)[C@H]1CO | 0.2 | 0.01 | 1 | 0.5 |
| CCCCCCCCCOCCCCCN1C[C@H](O)[C@@H](O)[C@H](O)[C@H]1CO | 0.1 |  |  |  |
| CCCCOCCCCCN1C[C@H](O)[C@@H](O)[C@H](O)[C@@H]1CO | 2 | 0.09 | > 1000 | > 1000 |
| CCCCCOCCCCCN1C[C@H](O)[C@@H](O)[C@H](O)[C@@H]1CO | 0.15 | 0.015 |  | 100 |
| CCCCCCOCCCCCN1C[C@H](O)[C@@H](O)[C@H](O)[C@@H]1CO | 0.1 | 0.025 |  |  |
| CCCCCCCOCCCCCN1C[C@H](O)[C@@H](O)[C@H](O)[C@@H]1CO | 0.05 | 0.015 | > 1000 | 40 |
| CCCCCCCCOCCCCCN1C[C@H](O)[C@@H](O)[C@H](O)[C@@H]1CO | 0.05 | 0.015 | > 1000 | 15 |
| CCCCCCCCCOCCCCCN1C[C@H](O)[C@@H](O)[C@H](O)[C@@H]1CO | < 0.05 |  |  |  |
| CCCCCCCCCN1C[C@H](O)[C@@H](O)[C@H](O)[C@H]1CO |  |  | 0.4 |  |
